Patent US20040171680A1, “Treating Syndrome X with substituted tetralins and indanes” (priority 2002, published 2004)
Read-outs that look alike come from different tables or passages of the source.

How the values were obtained:
PPARδ = biological target: T1, PPARδ (Homo sapiens, UniProt Q03181); assay: Transfection Assay for PPARδ Receptors (PPAR-Gal4 / Gal4-Luciferase reporter in HEK293 cells); type: cell-based; settings: fold induction; PPARδ standard: FI = 36.1
T1 construct: a Gal4-Luciferase reporter is co-transfected
T1 sequence (Q03181 171-441 limits assumed): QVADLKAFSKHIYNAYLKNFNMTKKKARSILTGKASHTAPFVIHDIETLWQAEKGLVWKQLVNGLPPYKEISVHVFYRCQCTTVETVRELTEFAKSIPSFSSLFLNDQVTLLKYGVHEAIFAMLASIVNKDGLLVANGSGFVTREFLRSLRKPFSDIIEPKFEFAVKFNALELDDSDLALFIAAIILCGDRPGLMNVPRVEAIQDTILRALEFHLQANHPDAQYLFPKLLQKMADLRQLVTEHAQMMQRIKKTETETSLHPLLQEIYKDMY
Experimental: Transfection Assay for PPARδ Receptors
HEK293 cells were grown in DMEM/F-12 Media supplemented with 10% FBS and glutamine (GIBCOBRL). The cells were co-transfected with DNA for PPAR-Gal4 receptor and Gal4-Luciferase Reporter using the DMRIE-C Reagent. On the following day, the DNA-containing medium were replaced with 5% Charcoal treated FBS growth medium. After six hours, cells were seeded in 96 well plate and incubated at 37° C. in CO2 incubator overnight. Cells were challenged by test compounds and incubated for 24 hours at 37° C. in 5% CO2 incubator. Luciferase activity was assayed using the Steady-Glo Luciferase Assay Kit from Promega. DMRIE-C Reagent was purchased from GIBCO Cat. No.10459-014. OPTI-MEM I Reduced Serum Medium was purchased from GIBCO Cat. No. 31985. Steady-Glo Luciferase Assay Kit was obtained from Promega Part# E254B.

PPARγ = biological target: T2, PPARγ (Homo sapiens, UniProt P37231); assay: aP2 Assay for PPAR gamma Agonists (bDNA aP2 mRNA in preadipocytes); type: cell-based; settings: fold induction; PPARγ standard: FI = 70.3
T2 construct: Following the challenge of the preadipocytes, cells may be lysed with lysis buffer; endogenous in cells; host or cells: preadipocytes
T2 sequence (P37231 1-505): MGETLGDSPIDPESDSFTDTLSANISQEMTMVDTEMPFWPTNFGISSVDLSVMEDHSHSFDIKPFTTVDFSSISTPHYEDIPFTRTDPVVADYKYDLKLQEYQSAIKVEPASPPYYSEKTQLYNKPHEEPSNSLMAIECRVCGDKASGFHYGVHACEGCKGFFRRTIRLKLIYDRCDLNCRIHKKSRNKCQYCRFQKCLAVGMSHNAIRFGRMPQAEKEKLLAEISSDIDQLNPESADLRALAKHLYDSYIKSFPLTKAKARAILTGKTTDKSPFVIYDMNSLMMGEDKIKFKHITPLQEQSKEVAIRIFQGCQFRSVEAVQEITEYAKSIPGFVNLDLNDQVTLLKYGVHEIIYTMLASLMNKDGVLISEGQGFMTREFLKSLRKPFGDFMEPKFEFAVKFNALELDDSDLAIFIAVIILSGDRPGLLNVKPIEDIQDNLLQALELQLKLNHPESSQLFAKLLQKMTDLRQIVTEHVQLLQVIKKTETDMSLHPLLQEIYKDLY
Description: aP2 Assay for PPAR gamma Agonists
The procedure is described in detail in Burris et al., Molecular Endocrinology, 1999, 13:410, which is hereby incorporated by reference in its entirety, and aP2 assay results of agonist intrinsic activity may be presented as fold increase over vehicle in induction of aP2 mRNA production.
Twenty-four hours after the initial seeding of the 96-well plates by hand (around 20,000/well), the differentiation assay may be initiated. Medium may be removed and replaced with […] of differentiation medium containing vehicle (DMSO) or test compounds. Cells may be returned to incubator for 24 hours culture. At the termination of the challenge, medium may be removed and 100 ul of lysis buffer may be added to initiate the bDNA aP2 mRNA assay. The branched DNA assay may be performed according to the manufacturer's protocol (Bayer Diagnostics; Emeryville, Calif.). Result may be expressed as the fold increase of aP2 mRNA production activated over vehicle controls. EC50's and Emax may be determined by non-linear regression with a sigmoidal fit curve.
Following the challenge of the preadipocytes, cells may be lysed with lysis buffer (Bayer Diagnostics) containing the aP2 oligonucleotides. After a 15 minute incubation at 53° C. or 30 minutes at 37° C. incubator, 70 ul of the lysis buffer from each well may be added to a corresponding capture well (preincubated with 70 ul of blocking buffer (Bayer Diagnostics)). The capture plate may be incubated overnight at 53° C. in a plate incubator (Bayer Diagnostics). After this incubation, the bDNA and labeled probes may be annealed as directed by the manufacturer. Following a 30-minute incubation with the luminescent alkaline phosphatase substrate, dioxitane, the luminescence may be quantitated in a Dynex MLX microtiter plate luminometer. Oligonucleotide probes designed to anneal to the aP2 mRNA and function in the bDNA mRNA detection system are designed with ProbeDesigner software (Bayer Diagnostics). This software package analyzes a target sequence of interest with a series of algorithms in order to determine which regions of the sequence can perform as locations for capture, label, or spacer probe annealing. The sequences of the oligonucleotides are as follows: […]

db/db mice = assay: Oral dosing in female db/db mice; type: in vivo; settings: Mus musculus, 1.0 mpk, % change compared to vehicle
Experimental: The compound was prepared as suspensions in 0.5% hydroxypropylmethylcellulose (Dow Chemical, Midland, Mich.). The dosing volume was 10 mL/kg of body weight. […] Body weight was measured in the mornings on Day 1, prior to dosing, and on Day 12 before bleeding. 18-24 hours after the final dose for each group, the mice were anesthetized with CO2/O2 (70:30) and bled by retro-orbital sinus puncture into micro-tubes containing clog activator and then put in ice. The serum samples were prepared by centrifugation. Serum glucose and triglycerides were determined by using COBAS Mira Plus blood chemistry analyzer (Roche Diagnostics, N.J.). Serum insulin was measured by using ALPCO insulin ELISA kit.
Statistical analysis was performed using the program Prism (Graphpad, Monrovia, Calif.) and performing one-way ANOVA with a Dunnet's multiple comparison test.

PPARα = biological target: T3, PPARα (Rattus norvegicus, UniProt P37230); assay: HD bDNA Assay (HD gene induction); type: cell-based; settings: in section F; target not named there, values match the PPARα column; read-out: EC50
T3 construct: H4IIE rat hepatoma cell line was obtained from ATCC; host or cells: H4IIE rat hepatoma cells
T3 sequence (P37230 1-468): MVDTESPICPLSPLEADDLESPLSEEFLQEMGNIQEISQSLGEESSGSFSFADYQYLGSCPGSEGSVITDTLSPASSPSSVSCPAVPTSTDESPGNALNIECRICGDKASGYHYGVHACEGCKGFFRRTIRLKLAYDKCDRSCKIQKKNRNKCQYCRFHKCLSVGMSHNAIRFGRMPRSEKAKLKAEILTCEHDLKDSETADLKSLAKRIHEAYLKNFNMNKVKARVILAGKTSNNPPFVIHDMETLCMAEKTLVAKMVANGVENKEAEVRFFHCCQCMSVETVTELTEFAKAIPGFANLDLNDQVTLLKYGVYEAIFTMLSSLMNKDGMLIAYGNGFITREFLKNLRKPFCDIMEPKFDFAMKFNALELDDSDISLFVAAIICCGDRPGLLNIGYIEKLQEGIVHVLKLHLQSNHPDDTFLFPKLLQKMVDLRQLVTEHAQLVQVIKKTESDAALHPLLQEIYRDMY
Method in brief: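 H4IIE rat hepatoma cells (~100,000/well) treated 24 hours at 37° C in low-serum medium (5% charcoal/dextran-treated calf serum) with compounds. HD mRNA quantified by branched DNA luminescence assay; EC50's from sigmoidal non-linear regression.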

[1] = Comparison of (S) and (R) isomer activity (test not stated); settings: chiral center on C-2 of the indane ring
[2] = 120 h, 5 day oral dosing, read-out: Δ BW
[3] = 120 h, 5 day oral dosing, read-out: Δ Plasma Glucose
[4] = 120 h, 5 day oral dosing, read-out: Δ Plasma Insulin
[5] = 120 h, 5 day oral dosing, read-out: Δ Plasma TG

PPARδ FI (PPARδ)	PPARγ FI (PPARγ)	EC50 (PPARα) [µM]	Structure (SMILES)	change in vivo at 1 mg/kg (db/db mice; [2]) [%]	change in vivo at 1 mg/kg (db/db mice; 264 h, 11 day oral dosing, read-out: Δ Plasma Glucose) [%]	change in vivo at 1 mg/kg (db/db mice; 264 h, 11 day oral dosing, read-out: Δ Plasma Insulin) [%]	change in vivo at 1 mg/kg (db/db mice; 264 h, 11 day oral dosing, read-out: Δ Plasma TG) [%]	change in vivo at 1 mg/kg (db/db mice; [3]) [%]	change in vivo at 1 mg/kg (db/db mice; [4]) [%]	change in vivo at 1 mg/kg (db/db mice; [5]) [%]	change in vivo at 1 mg/kg (db/db mice; 264 h, 11 day oral dosing, read-out: Δ BW) [%]	activity of the (S) isomer compared with the (R) isomer [1]
5.9	1.9	0.073	CCCCCN(C(=O)Nc1ccc(OC(F)(F)F)cc1)C1Cc2ccc(SC(C)(C)C(=O)O)cc2C1 (centres unmarked) [Example 8, 2-Methyl-2-{2-[1-pentyl-3-(4-trifluoromethoxyphenyl)ureido]indan-5-ylsulfanyl}-2-methylpropionic acid]	-2				-28	-38	-27		
1.0	2.9	0.131	CCCCCN(C(=O)Nc1ccc(N(C)C)cc1)C1Cc2ccc(SC(C)(C)C(=O)O)cc2C1 (centres unmarked) [Example 9, 2-{2-[3-(4-Dimethylaminophenyl)-1-pentylureido]indan-5-ylsulfanyl}-2-methylpropionic acid]	0.05				-13	-40	-6		

Continued, compound first:

Structure (SMILES)	PPARδ FI (PPARδ)	PPARγ FI (PPARγ)	EC50 (PPARα) [µM]	change in vivo at 1 mg/kg (db/db mice; [2]) [%]	change in vivo at 1 mg/kg (db/db mice; 264 h, 11 day oral dosing, read-out: Δ Plasma Glucose) [%]	change in vivo at 1 mg/kg (db/db mice; 264 h, 11 day oral dosing, read-out: Δ Plasma Insulin) [%]	change in vivo at 1 mg/kg (db/db mice; 264 h, 11 day oral dosing, read-out: Δ Plasma TG) [%]	change in vivo at 1 mg/kg (db/db mice; [3]) [%]	change in vivo at 1 mg/kg (db/db mice; [4]) [%]	change in vivo at 1 mg/kg (db/db mice; [5]) [%]	change in vivo at 1 mg/kg (db/db mice; 264 h, 11 day oral dosing, read-out: Δ BW) [%]	activity of the (S) isomer compared with the (R) isomer [1]
CCN(C(=O)Nc1ccc(OC(F)(F)F)cc1)C1Cc2ccc(SC(C)(C)C(=O)O)cc2C1 (centres unmarked) [Example 2, 2-{2-[1-Ethyl-3-(4-trifluoromethoxyphenyl)ureido]indan-5-ylsulfanyl}-2-methylpropionic acid]	4.2	0.24	0.027	-59	-60	-53	-56					
CCN(C(=O)Nc1ccc(OC(F)(F)F)cc1)[C@H]1Cc2ccc(SC(C)(C)C(=O)O)cc2C1 [Example 3, (S)-2-{2-[1-Ethyl-3-(4-trifluoromethoxyphenyl)ureido]indan-5-ylsulfanyl}-2-methylpropionic acid]								-66	-69	-66	-136	the (S) isomer is more active than the (R) isomer
CCN(C(=O)Nc1ccc(C(C)C)cc1)C1Cc2ccc(SC(C)(C)C(=O)O)cc2C1 (centres unmarked) [Example 6, 2-{2-[1-Ethyl-3-(4-isopropylphenyl)ureido]indan-5-ylsulfanyl}-2-methylpropionic acid]	3.6	1.9	0.056	-54				-49	-19	-50		
CCN(C(=O)Nc1ccc(N(C)C)cc1)C1Cc2ccc(SC(C)(C)C(=O)O)cc2C1 (centres unmarked) [Example 7, 2-{2-[3-(4-Dimethylaminophenyl)-1-ethylureido]indan-5-ylsulfanyl}-2-methylpropionic acid]	0.8	0	0.075	-27				-44	-40	-63		
CCCCCN(C(=O)Nc1ccc(SC(F)(F)F)cc1)C1Cc2ccc(SC(C)(C)C(=O)O)cc2C1 (centres unmarked) [Example 5, 2-Methyl-2-{2-[1-pentyl-3-(4-trifluoromethylsulfanylphenyl)ureido]indan-5-ylsulfanyl}propionic acid]	2.5	4.0	0.053	56				-31	-43	-19		
